Laboratory results: the NIST ThermoML archive (doi:10.1016/j.jct.2014.12.020)
± gives the expanded uncertainty stated by the source.

Assay: wn = mass fraction of the nth substance listed
Conditions: 100 kPa, Liquid; for viscosity: Concentric cylinders viscometry; for mass density: Vibrating tube method

CCC(=O)[O-].C[N+](C)(C)CCO [cholinium propanoate] + O
Conditions | mass density [kg/m3] | viscosity [mPa·s]
293.15 K, w2 = 0.003 | 1070.1 ± 1.3 | 4600 ± 280
293.15 K, w2 = 0.01 | 1070.9 ± 1.3 | 3316.4 ± 190
293.15 K, w2 = 0.021 | 1072.1 ± 1.3 | 2130.4 ± 110
293.15 K, w2 = 0.025 | 1072.3 ± 1.3 | 1826.4 ± 91
293.15 K, w2 = 0.046 | 1074 ± 1.3 | 980.3 ± 42
293.15 K, w2 = 0.064 | 1075.3 ± 1.3 | 607 ± 23
293.15 K, w2 = 0.1 | 1076.9 ± 1.3 | 286 ± 8.9
293.15 K, w2 = 0.127 | 1077.5 ± 1.2 | 193.3 ± 5.4
293.15 K, w2 = 0.208 | 1077.7 ± 1.2 | 74.5 ± 1.7
293.15 K, w2 = 0.262 | 1075.4 ± 1.1 | 49.6 ± 1.1
298.15 K, w2 = 0.003 | 1067.4 ± 1.3 | 2918.6 ± 160
298.15 K, w2 = 0.01 | 1068.1 ± 1.3 | 2112.2 ± 110
298.15 K, w2 = 0.021 | 1069.2 ± 1.3 | 1416.6 ± 66
298.15 K, w2 = 0.025 | 1069.5 ± 1.3 | 1227.2 ± 56
298.15 K, w2 = 0.046 | 1071.1 ± 1.3 | 681.1 ± 27
298.15 K, w2 = 0.064 | 1072.3 ± 1.3 | 432.9 ± 15
298.15 K, w2 = 0.1 | 1074 ± 1.3 | 211.8 ± 6
298.15 K, w2 = 0.127 | 1074.6 ± 1.2 | 145.4 ± 3.7
298.15 K, w2 = 0.208 | 1074.9 ± 1.2 | 57.9 ± 1.3
298.15 K, w2 = 0.262 | 1072.3 ± 1.1 | 39.1 ± 0.9
303.15 K, w2 = 0.003 | 1064.6 ± 1.3 | 1909.6 ± 96
303.15 K, w2 = 0.01 | 1065.3 ± 1.3 | 1410 ± 66
303.15 K, w2 = 0.021 | 1066.4 ± 1.3 | 968.2 ± 42
303.15 K, w2 = 0.025 | 1066.7 ± 1.3 | 847.5 ± 35
303.15 K, w2 = 0.046 | 1068.2 ± 1.3 | 484.8 ± 17
303.15 K, w2 = 0.064 | 1069.5 ± 1.3 | 315.7 ± 10
303.15 K, w2 = 0.1 | 1071.2 ± 1.3 | 159.9 ± 4.2
303.15 K, w2 = 0.127 | 1071.9 ± 1.2 | 111.4 ± 2.7
303.15 K, w2 = 0.208 | 1072 ± 1.2 | 45.8 ± 1
303.15 K, w2 = 0.262 | 1069.4 ± 1.1 | 31.4 ± 0.7
308.15 K, w2 = 0.003 | 1061.9 ± 1.3 | 1285 ± 59
308.15 K, w2 = 0.01 | 1062.5 ± 1.3 | 967 ± 41
308.15 K, w2 = 0.021 | 1063.6 ± 1.3 | 678.9 ± 27
308.15 K, w2 = 0.025 | 1063.8 ± 1.3 | 599.9 ± 23
308.15 K, w2 = 0.046 | 1065.4 ± 1.3 | 353 ± 12
308.15 K, w2 = 0.064 | 1066.7 ± 1.3 | 235.1 ± 6.9
308.15 K, w2 = 0.1 | 1068.4 ± 1.2 | 123 ± 3.1
308.15 K, w2 = 0.127 | 1069.1 ± 1.2 | 86.8 ± 2
308.15 K, w2 = 0.208 | 1069.2 ± 1.2 | 36.7 ± 0.8
308.15 K, w2 = 0.262 | 1066.5 ± 1.1 | 25.5 ± 0.6
313.15 K, w2 = 0.003 | 1059.2 ± 1.3 | 888.1 ± 37
313.15 K, w2 = 0.01 | 1059.8 ± 1.3 | 680.2 ± 27
313.15 K, w2 = 0.021 | 1060.8 ± 1.3 | 487.3 ± 18
313.15 K, w2 = 0.025 | 1061 ± 1.3 | 434.3 ± 15
313.15 K, w2 = 0.046 | 1062.6 ± 1.3 | 262.3 ± 7.9
313.15 K, w2 = 0.064 | 1063.9 ± 1.3 | 178.4 ± 4.9
313.15 K, w2 = 0.1 | 1065.7 ± 1.2 | 96.1 ± 2.3
313.15 K, w2 = 0.127 | 1066.4 ± 1.2 | 68.7 ± 1.5
313.15 K, w2 = 0.208 | 1066.3 ± 1.2 | 29.8 ± 0.7
313.15 K, w2 = 0.262 | 1063.6 ± 1.1 | 20.8 ± 0.5
318.15 K, w2 = 0.003 | 1056.4 ± 1.3 | 628.8 ± 24
318.15 K, w2 = 0.01 | 1057 ± 1.3 | 489.6 ± 18
318.15 K, w2 = 0.021 | 1058.1 ± 1.3 | 357.4 ± 12
318.15 K, w2 = 0.025 | 1058.3 ± 1.3 | 321.1 ± 10
318.15 K, w2 = 0.046 | 1059.9 ± 1.3 | 198.7 ± 5.6
318.15 K, w2 = 0.064 | 1061.2 ± 1.3 | 137.7 ± 3.5
318.15 K, w2 = 0.1 | 1062.9 ± 1.2 | 76.2 ± 1.7
318.15 K, w2 = 0.127 | 1063.6 ± 1.2 | 55.1 ± 1.2
318.15 K, w2 = 0.208 | 1063.4 ± 1.2 | 24.5 ± 0.5
318.15 K, w2 = 0.262 | 1060.7 ± 1.1 | 17.5 ± 0.4
323.15 K, w2 = 0.003 | 1053.6 ± 1.3 | 455.4 ± 16
323.15 K, w2 = 0.01 | 1054.3 ± 1.3 | 360 ± 12
323.15 K, w2 = 0.021 | 1055.4 ± 1.3 | 267.4 ± 8.2
323.15 K, w2 = 0.025 | 1055.7 ± 1.3 | 241.9 ± 7.2
323.15 K, w2 = 0.046 | 1057.3 ± 1.3 | 153.1 ± 4
323.15 K, w2 = 0.064 | 1058.7 ± 1.3 | 108 ± 2.6
323.15 K, w2 = 0.1 | 1060.2 ± 1.2 | 61.3 ± 1.4
323.15 K, w2 = 0.127 | 1060.8 ± 1.2 | 44.8 ± 1
323.15 K, w2 = 0.208 | 1060.6 ± 1.2 | 20.4 ± 0.5
323.15 K, w2 = 0.262 | 1057.8 ± 1.1 | 14.7 ± 0.3
328.15 K, w2 = 0.003 | 1050.9 ± 1.3 | 336.7 ± 11
328.15 K, w2 = 0.01 | 1051.6 ± 1.3 | 270 ± 8.3
328.15 K, w2 = 0.021 | 1052.7 ± 1.3 | 203.8 ± 5.8
328.15 K, w2 = 0.025 | 1053 ± 1.3 | 185.5 ± 5.1
328.15 K, w2 = 0.046 | 1054.6 ± 1.3 | 119.9 ± 3
328.15 K, w2 = 0.064 | 1056 ± 1.3 | 86 ± 2
328.15 K, w2 = 0.1 | 1057.5 ± 1.2 | 50 ± 1.1
328.15 K, w2 = 0.127 | 1058 ± 1.2 | 36.9 ± 0.8
328.15 K, w2 = 0.208 | 1057.8 ± 1.2 | 17.2 ± 0.4
328.15 K, w2 = 0.262 | 1054.9 ± 1.1 | 12.5 ± 0.3
333.15 K, w2 = 0.003 | 1048.2 ± 1.3 | 253.8 ± 7.6
333.15 K, w2 = 0.01 | 1049 ± 1.3 | 206.2 ± 5.9
333.15 K, w2 = 0.021 | 1050.1 ± 1.3 | 158.1 ± 4.2
333.15 K, w2 = 0.025 | 1050.3 ± 1.3 | 144.6 ± 3.8
333.15 K, w2 = 0.046 | 1052.1 ± 1.3 | 95.3 ± 2.3
333.15 K, w2 = 0.064 | 1053.3 ± 1.3 | 69.4 ± 1.6
333.15 K, w2 = 0.1 | 1054.8 ± 1.2 | 41.2 ± 0.9
333.15 K, w2 = 0.127 | 1055.4 ± 1.2 | 30.7 ± 0.7
333.15 K, w2 = 0.208 | 1054.9 ± 1.2 | 14.6 ± 0.3
333.15 K, w2 = 0.262 | 1051.9 ± 1.1 | 10.6 ± 0.2
338.15 K, w2 = 0.003 | 1045.5 ± 1.3 | 194.8 ± 5.5
338.15 K, w2 = 0.01 | 1046.3 ± 1.3 | 160.1 ± 4.3
338.15 K, w2 = 0.021 | 1047.5 ± 1.3 | 124.5 ± 3.1
338.15 K, w2 = 0.025 | 1047.8 ± 1.3 | 114.4 ± 2.8
338.15 K, w2 = 0.046 | 1049.4 ± 1.3 | 76.7 ± 1.8
338.15 K, w2 = 0.064 | 1050.7 ± 1.3 | 56.7 ± 1.3
338.15 K, w2 = 0.1 | 1052.1 ± 1.2 | 34.3 ± 0.8
338.15 K, w2 = 0.127 | 1052.6 ± 1.2 | 25.8 ± 0.6
338.15 K, w2 = 0.208 | 1052 ± 1.2 | 12.5 ± 0.3
338.15 K, w2 = 0.262 | 1048.9 ± 1.1 | 9.3 ± 0.2
343.15 K, w2 = 0.003 | 1042.9 ± 1.3 | 151.9 ± 4
343.15 K, w2 = 0.01 | 1043.7 ± 1.3 | 126.2 ± 3.2
343.15 K, w2 = 0.021 | 1044.8 ± 1.3 | 99.3 ± 2.4
343.15 K, w2 = 0.025 | 1045.1 ± 1.3 | 91.8 ± 2.2
343.15 K, w2 = 0.046 | 1046.7 ± 1.3 | 62.5 ± 1.4
343.15 K, w2 = 0.064 | 1047.9 ± 1.3 | 46.8 ± 1
343.15 K, w2 = 0.1 | 1049.3 ± 1.2 | 28.8 ± 0.6
343.15 K, w2 = 0.127 | 1049.7 ± 1.2 | 21.9 ± 0.5
343.15 K, w2 = 0.208 | 1049.1 ± 1.2 | 10.8 ± 0.2
343.15 K, w2 = 0.262 | 1045.8 ± 1.1 | 8.1 ± 0.2
